SMILES strings stand for the structures.

This assay relates to Human epidermal keratinocytes (HEKn). The assay can be described thus: Gene expression of differentiation markers, quantitative RT-PCR. As to conditions: 8 h, FIG. 7A, compared to 20S(OH)D3. In kind it is cell-based. As to the method:
RNA isolation and reverse transcription were performed as described previously (Slominski A T, et. al., (2021) Sci Rep 11(1) 8002). Quantitative RT-PCR was carried out using Sybr green Master Mix (Thermo Scientific, Waltham, MA), in triplicates as previously described (Slominski A T, et. al., (2021) Sci Rep 11(1) 8002; Janjetovic Z, et. al., (2014) J Pineal Res 57(1) 90-102). Human epidermal keratinocytes (HEKn) isolated from foreskin of white neonates were cultured until the third passage before treatment as described in the literature (Chaiprasongsuk A, et. al., (2019) Redox Biol 24 101206; Janjetovic Z, et. al., (2009) PloS one 4(6) e5988). Cells were treated with vitamin D3 derivatives for 8 h or 24 h and harvested for RNA isolation. Approximately 300 ng of RNA was used for cDNA synthesis and an equal amount of cDNA was used for PCR reactions. Cyclophilin B or GAPDH was used as an internal control. Primers sequences are listed in (Chaiprasongsuk A, et. al., (2020) Free Radic Biol Med 155 87-9845, Slominski A T, et. al., (2017) Sci Rep 7(1) 11434). Reactions were done in triplicate.
Referring to FIG. 7A-D, stimulation of keratinocyte differentiation by 20S(OH)D3, 20S,25(OH)2D3, 20S,23S(OH)2D3 and 20S,23R(OH)2D3 in comparison to 1α,25(OH)2D3. […]

On to `C=C1CC[C@H](O)C/C1=C/C=C1\CCC[C@@]2(C)[C@H]1CC[C@@H]2[C@@](C)(O)CCCC(C)(C)O` [20S,25(OH)2D3, (20S)-20,25-Dihydroxyvitamin D3], for which the “gene expression of involucrin, CK10, and filaggrin” value is “slightly better at inducing gene expression of involucrin, CK10, and filaggrin”.
